We go through one compound from ChEMBL document CHEMBL5385865, “Discovery and optimization of 2-(trifluoromethyl)benzimidazole derivatives as novel ferroptosis inducers in vitro and in vivo” (Eur J Med Chem, 2023).

Active and inactive are the calls of the source. No cut-off for these calls is given here.

A short description of series [1]: Toxicity in BALB/c nude mouse xenografted with human HepG2 cells assessed as histological change in liver at 15 to 30 mg/kg, ip administered every other day for 21 days by H and E staining based analysis. The settings on record: in vivo, 504 h, dose 15-30 mg/kg, time 21 day. Format: organism-based. On the technique in general: Xenograft models place foreign cells or tissue in a host animal.

The nature of series [2]: Toxicity in human L02 cells upto 20 uM incubated for 48 hrs by MTT assay. The settings on record: l02, 48 h. The class given is cell-based.
Series [3] addresses T1, Cystine/glutamate transporter (Homo sapiens) (UniProt Q9UPY5).
T1 sequence (whole entry): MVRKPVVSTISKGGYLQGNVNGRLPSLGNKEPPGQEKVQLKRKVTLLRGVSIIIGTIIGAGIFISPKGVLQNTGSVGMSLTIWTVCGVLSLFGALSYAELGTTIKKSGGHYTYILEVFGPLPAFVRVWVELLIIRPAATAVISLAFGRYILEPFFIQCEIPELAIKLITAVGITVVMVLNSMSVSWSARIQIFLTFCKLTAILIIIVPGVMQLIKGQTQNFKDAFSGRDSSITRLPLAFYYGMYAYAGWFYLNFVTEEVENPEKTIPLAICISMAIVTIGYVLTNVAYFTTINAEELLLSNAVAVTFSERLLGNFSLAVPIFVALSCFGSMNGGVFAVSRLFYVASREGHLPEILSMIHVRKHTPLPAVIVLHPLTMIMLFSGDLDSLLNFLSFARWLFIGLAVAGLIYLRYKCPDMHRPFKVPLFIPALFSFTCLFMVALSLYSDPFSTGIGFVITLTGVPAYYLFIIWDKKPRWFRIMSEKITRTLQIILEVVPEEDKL
Put plainly: Inhibition of Xc- in human HT-1080 cells assessed as decrease in glutamate release incubated for 3 hrs by Amplex red assay. The class given is cell-based. The settings on record: dose 0.5-5 µM.

Series [4] is described as follows: Toxicity in BALB/c nude mouse xenografted with human HepG2 cells assessed as effect on serum ALP level at 15 to 30 mg/kg, ip administered every other day for 21 days. Format: organism-based. The settings on record: in vivo, 504 h, dose 15-30 mg/kg, time 21 day.
The subject of series [5] is HepG2. Kind of series: Antitumor activity against human HepG2 cells xenografted in BALB/c nude mouse assessed as tumor weight reduction administered intraperitoneally every other day for 21 days. The class given is functional. The following applies: dose 15-30 mg/kg, route ip, time 21.0 day.
For series [6], the system named is HepG2. Put plainly: Antitumor activity against human HepG2 cells xenografted in BALB/c nude mouse assessed as tumor growth inhibition at 30 mg/kg, ip administered every other day for 21 days by electronic caliper analysis relative to control. Format: functional. The following applies: HepG2, 504 h, time 21 day, read-out: TGI.
For series [7], the system named is HT-1080. Kind of series: Induction of ferroptosis in human HT-1080 cells assessed as cell death at 5 uM incubated for 24 hrs in presence of DFO by morphology based microscopy. The class given is functional.
The subject of series [8] is DU-145. Kind of series: Lethality in human DU-145 cells assessed as decrease in cell viability at 10 uM incubated for 48 hrs in presence of DFO by MTT assay. The class given is functional, cell-based. Background: Tetrazolium assays rely on reduction of a dye to a coloured formazan, in cell work by metabolically active cells.
A short description of series [9]: Toxicity in BALB/c nude mouse xenografted with human HepG2 cells assessed as effect on serum AST level at 15 to 30 mg/kg, ip administered every other day for 21 days. The class given is organism-based. The following applies: in vivo, 504 h, dose 15-30 mg/kg, time 21 day.
The subject of series [10] is MDA-MB-231. Put plainly: Lethality in human MDA-MB-231 cells assessed as decrease in cell viability at 10 uM incubated for 48 hrs in presence of Fer-1 by MTT assay. The class given is functional, cell-based.
In series [11] the test system is HT-1080. Kind of series: Effect on GPX4 mRNA level in human HT-1080 cells at 0.5 to 5 uM incubated for 18 hrs by qPCR analysis. Format: functional, cell-based. The following applies: dose 0.5-5 µM.
Series [12] in a line: Toxicity in BALB/c nude mouse xenografted with human HepG2 cells assessed as histological change in kidney at 15 to 30 mg/kg, ip administered every other day for 21 days by H and E staining based analysis. Format: organism-based. The settings on record: in vivo, 504 h, dose 15-30 mg/kg, time 21 day.
The subject of series [13] is HT-1080. Put plainly: Induction of ferroptosis in human HT-1080 cells assessed as cell death at 10 uM incubated for 24 hrs in presence of Trolox by MTT assay. The class given is functional, cell-based.

Turning to `CN(C)S(=O)(=O)c1ccc(N2CCC(Cn3c(C(F)(F)F)nc4ccccc43)CC2)cc1`, the Activity entry in series [1] was “Non-Toxic”; in series [2] it was “Non-Toxic”; in series [4], “Non-Toxic”; in series [5], “Dose-Dependent Effect”; in series [9], “Non-Toxic”; in series [12] it was “Non-Toxic”. For the same compound, the inhibition result in series [3] is “Dose-Dependent Effect”. Further, the inhibition in vivo at 30 mg/kg in [6] is 77.1%. In addition, the outcome in series [7], in [8], in series [10], in [11] and in [13] was inactive.
